Measurements reported in patent US20160194358A1, “LINEAR PEPTIDE ANTIBIOTCS” (priority 2013, published 2016).
Converted amounts (≈) assume the structure as drawn. Read-outs that look alike come from different tables or passages of the source. *1 amine or outer side, *2 acyl side, *3 side chain or, on linkers, in order; H or OH if unused. Where a SMILES comes first, the peptide text is derived from it. [ ]: non-standard residue; d: D form. The star is where a group is joined. boroAla((+)-pinanediol) = C[C@H](N*)B1O[C@@H]2C[C@@H]3C[C@@H](C3(C)C)[C@]2(C)O1; Benzoyl(4-(4-Cl-Ph)) = O=C(c1ccc(-c2ccc(Cl)cc2)cc1)*; X12 = C[C@H](N*)C(=O)c1nc2ccccc2o1; X9 = CC1(c2ccccc2)CCN(*)CC1; X6 = NCCCCCCCCCCCCCCC(=O)*; Octanoyl = CCCCCCCC(=O)*; Dab = NCC[C@H](N)C(=O)O; Dap = NC[C@H](N)C(=O)O; CO = O=C([*:1])[*:2]

Legend:
[1] = test system: Escherichia coli strain MC4100 IMP-4213, which harbors an LptD mutation; conditions: E. coli MC4100 IMP-4213, 35° C., 22 hours
How it was run: (§1)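 CLSI broth microdilution in cation-adjusted Mueller Hinton Broth with 0.002% Tween-80, two-fold dilutions starting at 64 μg/ml.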

[2] = test system: methicillin resistant Staphylococcus aureus (MRSA) strain USA300 (NRS384); conditions: MRSA USA300 (NRS384), 35° C., 22 hours
How it was run: as §1

[3] = biological target: T1, E. coli SPase (Escherichia coli, UniProt P00803); test: Biochemical SPase activity assay, fluorogenic peptide substrate, E. coli enzyme; conditions: 20 μM substrate, 10 minutes preincubation, read-out: IC 50 (nM) E. coli
T1 construct: Full length His-tagged E. coli SPase proteins; His; made in house; host or cells: E. coli BL21(DE3)
T1 sequence (P00803 whole entry): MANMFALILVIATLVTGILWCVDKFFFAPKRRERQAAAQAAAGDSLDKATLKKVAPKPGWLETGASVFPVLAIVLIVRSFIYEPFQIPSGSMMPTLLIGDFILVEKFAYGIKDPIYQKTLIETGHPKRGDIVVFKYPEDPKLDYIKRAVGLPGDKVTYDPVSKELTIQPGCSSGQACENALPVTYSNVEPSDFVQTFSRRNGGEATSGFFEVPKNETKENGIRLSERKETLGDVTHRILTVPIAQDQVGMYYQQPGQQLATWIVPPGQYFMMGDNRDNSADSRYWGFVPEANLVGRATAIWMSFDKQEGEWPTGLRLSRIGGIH

[4] = biological target: S. aureus SPase (Staphylococcus aureus, UniProt P0A070); test: biochemical; conditions: IC 50 (nM) S. aureus, 20 μM substrate, 10 minutes preincubation
Chain of S. aureus SPase (P0A070 whole entry): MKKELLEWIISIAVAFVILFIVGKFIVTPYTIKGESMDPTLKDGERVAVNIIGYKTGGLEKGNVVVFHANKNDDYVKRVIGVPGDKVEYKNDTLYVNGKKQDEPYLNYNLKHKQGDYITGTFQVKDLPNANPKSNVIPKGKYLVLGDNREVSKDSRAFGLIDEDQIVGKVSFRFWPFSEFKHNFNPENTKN

SMILES	MIC (μg/mL) E. coli ([1]; listed as 203 P1)	MIC (μg/mL) S. aureus ([2]; listed as 203 P1)	IC50 [3]	IC50 [4]	MIC (μg/mL) E. coli ([1]; listed as 205 P2)	MIC (μg/mL) S. aureus ([2]; listed as 205 P2)	MIC (μg/mL) E. coli [1]	MIC (μg/mL) S. aureus [2]
CCCCc1ccc(-c2ccc(C(=O)N[C@@H](CCN)C(=O)N[C@H](C(=O)N[C@@H](C)C(=O)N[C@@H](CCCCN)C(=O)N[C@@H](C)C(=O)C3OC3C)[C@@H](C)O)cc2)cc1 (single isomer, unassigned) [Compound 203 P1]	11 µg/mL (≈ 14.4 µM)	1.2 µg/mL (≈ 1.57 µM)	440 nM	95 nM				
CCCCc1ccc(-c2ccc(C(=O)N[C@@H](CCN)C(=O)N[C@H](C(=O)N[C@@H](C)C(=O)N[C@@H](CCCCN)C(=O)N[C@@H](C)C(=O)C3OC3C)[C@@H](C)O)cc2)cc1 (single isomer, unassigned) [Compound 205 P2]			> 10000 nM	> 10000 nM	32 µg/mL (≈ 41.8 µM)	>64 µg/mL		
C[C@H](NC(=O)[C@@H](NC(=O)[C@H](CN)NC(=O)c1ccc(-c2ccc(Cl)cc2)cc1)[C@@H](C)O)C(=O)N[C@@H](CCCCN)C(=O)N[C@@H](C)C(=O)c1nc2ccccc2o1 [Compound 214] ({Benzoyl(4-(4-Cl-Ph))}-[Dap]TAK-X12)			180 nM	630 nM			32 µg/mL (≈ 40.4 µM)	64 µg/mL (≈ 80.9 µM)
C[C@H](NC(=O)[C@H](CCCCN)NC(=O)[C@H](C)NC(=O)[C@@H](NC(=O)[C@H](CCN)NC(=O)CCCCCCCCCCCCCCN)[C@@H](C)O)B1O[C@@H]2C[C@@H]3C[C@@H](C3(C)C)[C@]2(C)O1 [Compound 116] (X6-[Dab]TAK-{boroAla((+)-pinanediol)})			200 nM	480 nM			32 µg/mL (≈ 37.1 µM)	1.4 µg/mL (≈ 1.62 µM)
C[C@H](NC(=O)[C@H](CCCCN)NC(=O)[C@H](C)NC(=O)[C@@H](NC(=O)[C@H](CCCCN)NC(=O)N1CCC(C)(c2ccccc2)CC1)[C@@H](C)O)B1O[C@@H]2C[C@@H]3C[C@@H](C3(C)C)[C@]2(C)O1 [Compound 130] ({X9-CO}-KTAK-{boroAla((+)-pinanediol)})			270 nM	280 nM			>64 µg/mL	64 µg/mL (≈ 75 µM)
CCCCCCCC(=O)N[C@@H](CCN)C(=O)N[C@H](C(=O)N[C@@H](C)C(=O)N[C@@H](CCCCN)C(=O)N[C@@H](C)B1O[C@@H]2C[C@@H]3C[C@@H](C3(C)C)[C@]2(C)O1)[C@@H](C)O [Compound 114] (Octanoyl-[Dab]TAK-{boroAla((+)-pinanediol)})			64 nM	250 nM			32 µg/mL (≈ 42.7 µM)	13 µg/mL (≈ 17.3 µM)
